From patent US4029811A, “Certain antiinflammatory dihydrobenzofuran and dihydronaphthofuran acetic acid compounds” (SCHIAPPARELLI - Stabilimenti Chimici Farmaceutici Riuniti …, priority 1974, dated 1977)
Entries after “also recorded” stand apart in the source; their conditions may differ. Where a name gives a salt, the structure may show the parent alone.

Experiments:
[1] = tested on: abdominal stretching; assay: Anti-writhing assay (acetic acid); assay type: in vivo, mouse; details: 200 mg/Kg p.o., 20 minutes before 3% acetic acid i.p.; counted 20 minutes
Experimental: Male albino Swiss Mice, each weighing 20 to 22 g, were used. The animals were fasted for 18 hours before pharmacological treatment. […] The number of abdominal stretching was counted for 20 minutes following the acetic acid injection.

[2] = tested on: rat hind paw edema; assay: Carrageenin-induced edema assay; assay type: in vivo; details: po, 3 hours after carrageenin, tested compounds as sodium salts; for inhibition in vivo at 200 mg/kg: 200 mg/Kg/os; for inhibition in vivo at 12.5 mg/kg: 12.5 mg/Kg/os; for inhibition in vivo at 25 mg/kg: 25 mg/Kg/os; for inhibition in vivo at 50 mg/kg: 50 mg/Kg/os; for inhibition in vivo at 100 mg/kg: 100 mg/Kg/os; for inhibition in vivo at 10 mg/kg: 10 mg/Kg/os; for inhibition in vivo at 30 mg/kg: 30 mg/Kg/os; for inhibition in vivo at 90 mg/kg: 90 mg/Kg/os
Experimental: Paw edema was measured by fluid displacement when the paw was immersed in a cup of mercury.

[3] = tested on: experimental polyarthritis; assay: Experimental polyarthritis assay (modified Freund's adjuvant); assay type: in vivo, rat; details: for Activity in experimental polyarthritis assay: 14 days, paw volume, FIG. 1
Experimental: Three groups of 10 Wistar rats were used. […] Pharmacological treatment was carried out for 14 days, while the third group served as control. Paw edema was measured as for the carrageenin-induced edema. Results are reported in FIG. 1 as % increase of paw volume immediately before modified Freund's adjuvant injection.

[4] = tested on: painful osteoarticular processes; assay: Clinical tests in patients with painful osteoarticular processes; assay type: in vivo, human
Experimental: 14 patients were treated with a dosage of 100 mg three times daily, during a period of three days; in further seven cases the treatment was 200--300 mg daily during 8-10 days. The remaining four patients received a dosage of 200 mg three times daily during periods of three to five days.

[5] = tested on: Wistar rats; assay: Long-term toxicity (60 days oral) in Wistar rats; assay type: in vivo; details: 60 mg/kg daily orally
Experimental: Compound (I) has been tested by employing 40 Wistar rats subdivided into 2 groups of 20 animals (10 male and 10 female). One of the groups (reference group) was fed in conventional manner, while 60 mg/kg daily of the compound on test were administered orally to the animals of the other group. The treatment was continued during 60 days: every 15 days the following aspects were checked: body weight, blood pressure (by incruent method), cardiac frequency, hemochromocytometric examination and urine analysis.
At the end of treatment, all animals have been sacrificed and subjected to further examinations (hemochromocytometric, serum-biochemical, enzymatic, electrolytic and autopsic examination).

[6] = tested on: Wistar rats; assay: Teratogenic studies in Wistar rats; assay type: in vivo; details: 30 mg/Kg and 60 mg/Kg orally
Experimental: Tests in the attempt of discovering any teratogenic and fetal-toxicity effects have been carried out in conventional manner on Wistar rats, to which compound (I) has been administered orally at dosages of 30 mg/Kg and 60 mg/Kg.

[7] = case 1, 100 mg three times daily
[8] = case 1, lumbosacral arthrosis, 100 mg three times daily

With CCC1CCc2cc(CC(=O)O)ccc2O1 (stereo not drawn) [(II), 2-ethylchroman-6-yl-acetic acid] the “% Stretching decrease from the control” value [1] was 42% and the inhibition in vivo at 200 mg/kg [2] was 31%.

For O=C(O)Cc1ccc2c3c(ccc2c1)OCC3 [(III), 1,2-Dihydronaphtho [2,1-b] furan-7-acetic acid], the “Activity relative to compound (I)” value ([3]; same conditions as for compound (I)) was “quite analogous to the activity of compound (I)”, the “% Stretching decrease from the control” value [1] was 73% and the inhibition in vivo at 200 mg/kg [2] was 51%.

With O=C(O)Cc1ccc2c3c(ccc2c1)OCCC3 [(IV), 1H-2,3-Dihydronaphtho [2,1-b]pyran-8-yl-acetic acid] the “% Stretching decrease from the control” value [1] was 62% and the inhibition in vivo at 200 mg/kg [2] was 64%.

With CCC1Cc2cc(C(C)C(=O)O)ccc2O1 (stereo not drawn) [(VI), 2(2-Ethyl-2,3-dihydrobenzofuran-5-yl)-propionic acid] the inhibition in vivo at 12.5 mg/kg [2] was 19.3%, the inhibition in vivo at 25 mg/kg [2] was 41.6% and the inhibition in vivo at 50 mg/kg [2] was 43.9%. It also gave an inhibition in vivo at 100 mg/kg [2] of 59.1%.

Work on CCC1CCc2cc(C(C)C(=O)O)ccc2O1 (stereo not drawn) [(VII), 2(2-Ethylchroman-6-yl)-propionic acid] yielded an inhibition in vivo at 12.5 mg/kg [2] of 28.7%, an inhibition in vivo at 25 mg/kg [2] of 50.2% and an inhibition in vivo at 50 mg/kg [2] of 31.2%. The inhibition in vivo at 100 mg/kg [2] was 45.9%.

In the case of CCC1Cc2cc(CC(=O)O)ccc2O1 (stereo not drawn) [Compound (I), 2,3-dihydro-2-ethylbenzofuran-5-yl-acetic acid], the Side effects ([4]; 25 patients, oral) is reported as “no side effects having been observed”, the Tolerability ([4]; 25 patients, oral) is reported as “always well tolerated” and the Antalgic-antiinflammatory effect ([4]; 25 patients, oral, overall) is reported as “significant antalgic-antiinflammatory effect”. The Side effects [4, 7] was “no side effects having been observed”, the Tolerability [4, 7] was “exceedingly well tolerated” and the “Clinical response, first day” value [4, 8] was “fair symptomatologic relief”. For the same molecule, the “Clinical response, second day” value [4, 8] was “improvement persists on the second day with an increased possibility for movement and gait”, the “Clinical response, third day” value [4, 8] was “the painful pattern has almost totally regressed” and the Side effects ([4]; case 2, 100 mg three times daily, eight days) was “No side effect”. The Clinical response ([4]; case 2, polyarthrosis, 100 mg three times daily, eight days) was “clear symptomatologic relief; gait is easier on the 4th and 5th day and mobility of the knee joint is improved; also recorded: Clearly positive clinical appreciation”, the Side effects ([4]; case 3, 100 mg three times daily, seven days) was “No side effect” and the Clinical response ([4]; case 3, cervical arthrosis, 100 mg three times daily, seven days) was “The patient reports relief; disappearance of cephalgia, possibility of rotating the cervical column initially blocked by pain; also recorded: almost total regression of algic aggravation”. For the same molecule, the Side effects ([4]; case 4, 100 then 200 mg three times daily) was “no side effect”, the Clinical response ([4]; case 4, bilateral coxo-arthrosis, 100 mg three times daily days 1-2, 200 mg three times daily day 3) was “satisfactory response of the painful pattern with a progressive reduction in algic symptomatology; also recorded: Appreciably favourable clinical response” and the Side effects ([4]; case 5, 100 mg three times daily, five days) was “without any side effect”. For the same molecule, the Clinical response ([4]; case 5, spinal arthrosis, 100 mg three times daily, five days) was “good antalgic effect; improved freedom of active and passive movements of the spinal column”, the “Antalgic-antiinflammatory effect judged slight” value ([4]; five of 25 cases) was 20% and the “Antalgic-antiinflammatory effect judged good or very good” value ([4]; seventeen of 25 cases) was 68%. For the same molecule, the “Antalgic-antiinflammatory effect judged none” value ([4]; three of 25 cases) was 12%, the Food consumption ([5]; 60 days) was “The food consumption was regular” and the Lethal cases ([5]; 60 days) was “No lethal cases have been observed”. For the same molecule, the “Alterations induced by prolonged administration” value ([5]; 60 days, conclusion) was “does not induce biologically relevant alterations”, the “Hemochromocytometric, serum-biochemical, enzymatic, electrolytic and autopsic examination” value ([5]; at end of 60 days treatment) was “No significant variations have been observed” and the “Body weight increase, blood pressure, cardiac frequency, hemochromocytometric examination and urine analysis” value ([5]; checked every 15 days during 60 days, versus reference group) was “No differences have been noted”. For the same molecule, the “Activity in experimental polyarthritis assay” value ([3]; 200 mg/Kg p.o.) was “significant activity”, the “Activity versus reference drug (phenylbutazone)” value ([3]; 200 mg/Kg p.o., at least in the first 9 days of treatment) was “superior to the reference drug” and the “% Stretching decrease from the control” value [1] was 81%. For the same molecule, the inhibition in vivo at 10 mg/kg [2] was 28%, the inhibition in vivo at 30 mg/kg [2] was 46% and the inhibition in vivo at 90 mg/kg [2] was 58%. The inhibition in vivo at 200 mg/kg [2] was 68% and the “Pregnancy disturbances and/or toxic effects on fetus” value [6] was “No. pregnancy disturbances and/or toxic effects on fetus have been observed”.

CC(C)Cc1ccc(C(C)C(=O)O)cc1 (stereo not drawn) [Ibuprofen, 2-(4-isobutyl-phenyl)-propionic acid-sodium salt, reference compound] was tested, and the inhibition in vivo at 12.5 mg/kg [2] was 42.1%, the inhibition in vivo at 25 mg/kg [2] was 38.1% and the inhibition in vivo at 50 mg/kg [2] was 52.1%. It also gave an inhibition in vivo at 100 mg/kg [2] of 46.9%.

In the case of CCCCC1C(=O)N(c2ccccc2)N(c2ccccc2)C1=O [Phenylbutazone, reference compound], the “Activity in experimental polyarthritis assay” value ([3]; 200 mg/Kg p.o.) is reported as “significant activity”, the “% Stretching decrease from the control” value [1] is reported as 43% and the inhibition in vivo at 10 mg/kg [2] is reported as 8%. For the same molecule, the inhibition in vivo at 30 mg/kg [2] was 17%, the inhibition in vivo at 90 mg/kg [2] was 20% and the inhibition in vivo at 200 mg/kg [2] was 42%.
